Paper PMC4268698, “Cell type-specific delivery of short interfering RNAs by dye-functionalised theranostic nanoparticles” (Nature Communications, 2014)
“Also recorded” adds a separate entry of the source.

Columns and labels:
[1] = In vivo pharmacokinetics of polymethine dyes (organ-specific clearance by liver and kidneys); parameters: species or system male Wistar rats; details: i.v., rats
Method: Catheters were placed in the jugular vein, carotid artery, bladder and bile duct of male Wistar rats (300–400 g body weight (BW)). After i.v. administration of DY-635 (13 pmol per g BW), DY-630 (13 pmol per g BW), DY-750 (13 pmol per gBW), DY-751 (13 pmol per g BW), DY-731 (13 pmol per g BW), DY-777 (14 pmol per g BW), DY-682 (13 pmol per g BW), DY-704 (17 pmol per g BW), DY-732 (13 pmol per g BW), DY-754 (17 pmol per g BW), DY-678 (14 pmol per g BW), DY-778 (14 pmol per g BW) or 6.5 μg DY625-[NP] per g BW, bile was collected every 5 min and 200 μl arterial blood taken at defined times into heparinised tubes. DY-635 fluorescence in bile and plasma was measured in a spectrofluorometer (FluoStar Optima, BMG Labtech). Results are mean±s.e.m. of three biological replicates.

[2] = tested on: primary murine hepatocytes; assay: Uptake of free DY-635 by primary hepatocytes, with and without cyclosporine A; type: cell-based, mouse; details: 37 or 4 °C
Method: This was then diluted 1:1 (v/v) with either 400 nM DY-635 (amino-terminated) or 10 μg NP in KHB. […] Lysates were analysed on a Tecan plate reader (Tecan) (excitation: 488±09 nm, emission 530±20 nm). […] Data were normalised to cellular protein (Bradford).

OATP1B1 = target: T1, OATP1B1 (Homo sapiens, UniProt Q9Y6L6); assay: DY-635 interaction with hepatic basolateral transporters, transfected HEK293 cells, radio-labelled substrate uptake; type: cell-based; details: 10 μM DY-635 vs rifampicin 20 μM; substrate [3H]estrone-sulfate 30 nM; transfected HEK cells
T1 construct: expressed in transfected cells; host or cells: HEK293 (pcDNA5 vector)
T1 sequence (Q9Y6L6 1-691): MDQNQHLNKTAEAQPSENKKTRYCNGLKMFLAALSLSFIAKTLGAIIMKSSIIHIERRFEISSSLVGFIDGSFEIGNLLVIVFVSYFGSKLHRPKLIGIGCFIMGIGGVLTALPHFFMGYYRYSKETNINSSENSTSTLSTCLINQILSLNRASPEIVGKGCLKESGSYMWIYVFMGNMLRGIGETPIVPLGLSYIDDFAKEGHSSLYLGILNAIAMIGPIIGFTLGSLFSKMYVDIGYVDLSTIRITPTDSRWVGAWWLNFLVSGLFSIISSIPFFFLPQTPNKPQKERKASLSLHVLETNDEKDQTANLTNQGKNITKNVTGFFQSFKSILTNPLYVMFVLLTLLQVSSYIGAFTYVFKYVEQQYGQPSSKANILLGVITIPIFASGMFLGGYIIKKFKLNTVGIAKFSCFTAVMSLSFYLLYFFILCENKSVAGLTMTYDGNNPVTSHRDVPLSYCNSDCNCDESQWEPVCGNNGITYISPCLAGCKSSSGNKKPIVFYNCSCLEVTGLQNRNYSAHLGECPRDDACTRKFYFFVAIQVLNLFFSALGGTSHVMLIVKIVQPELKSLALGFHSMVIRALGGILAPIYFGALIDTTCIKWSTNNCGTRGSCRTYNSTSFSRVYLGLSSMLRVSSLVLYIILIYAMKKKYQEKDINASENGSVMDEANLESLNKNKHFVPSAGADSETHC
Method: (§1) HEK293 cells were transfected with OATP1B1 (SLCO1B1, NM_006446), OATP1B3 (SLCO1B3, NM_019844), OCT1 (SLC22A1, NM_003057.2), OAT2 (SLC22A7, NM_006672), NTCP (SLC10A1, NM_003049), NaDC3 (SLC13A3, AF154121) or the empty vector (pcDNA5).Transfected HEK293 cells were seeded at 2 × 10^5 cells per well and cultured for 3 days.

NTCP = target: T2, NTCP (Homo sapiens, UniProt Q14973); assay: as above; type: cell-based; details: 10 μM DY-635; substrate [3H]estrone-sulfate 10 μM; transfected HEK cells
T2 construct: expressed in transfected cells; host or cells: HEK293 (pcDNA5 vector)
T2 sequence (Q14973 1-349): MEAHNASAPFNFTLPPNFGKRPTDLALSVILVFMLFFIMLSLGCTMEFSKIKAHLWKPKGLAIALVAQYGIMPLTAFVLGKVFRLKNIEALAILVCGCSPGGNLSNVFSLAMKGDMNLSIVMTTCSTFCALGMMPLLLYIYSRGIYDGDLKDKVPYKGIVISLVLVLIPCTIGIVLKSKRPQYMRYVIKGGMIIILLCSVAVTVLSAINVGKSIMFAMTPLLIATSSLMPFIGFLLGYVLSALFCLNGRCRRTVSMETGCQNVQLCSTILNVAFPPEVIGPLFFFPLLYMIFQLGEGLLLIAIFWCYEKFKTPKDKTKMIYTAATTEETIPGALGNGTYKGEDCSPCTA
Method: as §1

OATP1B3 = target: T3, OATP1B3 (Homo sapiens, UniProt Q9NPD5); assay: as above; type: cell-based; details: 10 μM DY-635 vs rifampicin 20 μM; substrate [3H]sulfobromphthalein 50 nM; transfected HEK cells
T3 construct: expressed in transfected cells; host or cells: HEK293 (pcDNA5 vector)
T3 sequence (Q9NPD5 1-702): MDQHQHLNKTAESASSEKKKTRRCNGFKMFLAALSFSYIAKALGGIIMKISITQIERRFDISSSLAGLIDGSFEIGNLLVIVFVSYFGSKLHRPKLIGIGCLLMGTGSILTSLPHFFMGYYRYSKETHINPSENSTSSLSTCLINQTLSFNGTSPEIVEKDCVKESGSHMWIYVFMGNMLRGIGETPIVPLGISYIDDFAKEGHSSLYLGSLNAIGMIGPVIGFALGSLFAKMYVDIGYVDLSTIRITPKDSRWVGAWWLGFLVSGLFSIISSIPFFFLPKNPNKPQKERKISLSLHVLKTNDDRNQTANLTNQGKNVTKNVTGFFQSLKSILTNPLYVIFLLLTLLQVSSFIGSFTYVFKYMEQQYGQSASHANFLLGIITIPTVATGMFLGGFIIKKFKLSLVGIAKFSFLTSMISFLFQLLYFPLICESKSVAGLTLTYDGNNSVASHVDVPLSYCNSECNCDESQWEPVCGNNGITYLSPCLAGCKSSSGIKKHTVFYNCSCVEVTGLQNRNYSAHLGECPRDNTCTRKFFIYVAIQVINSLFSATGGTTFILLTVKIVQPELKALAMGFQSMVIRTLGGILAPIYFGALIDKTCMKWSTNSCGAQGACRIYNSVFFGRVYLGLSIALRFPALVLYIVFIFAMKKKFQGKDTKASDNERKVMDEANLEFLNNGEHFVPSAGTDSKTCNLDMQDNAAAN
Method: as §1

liver parenchyma = assay: Intravital microscopy of liver (fluorescence decay, cellular association); type: in vivo, male FVB/NRj mice; details: Cy5 channel, after injection
Method: IVM was performed using an inverted epifluorescence microscope (AxioObserverR Z1; Zeiss) as described previously.

HepaRG and HUVEC cells = assay: Microfluidic-assisted organoid, co-culture of HepaRG and HUVEC, nanoparticle uptake; type: cell-based, human
Method: HUVEC and HepaRG cells were co-cultured using a microfluidic-supported chip. […] 2.7 × 10^4 cells per cm^2 were seeded in William’s E medium supplemented with 10% foetal bovine serum, 100 U ml^−1 penicillin, 100 g ml^−1 streptomycin, 5 U ml^−1 insulin and 5 × 10^−5 M hydrocortisone-hemisuccinate and cultured for 2 weeks. For HepaRG differentiation, cells were cultured with 2% dimethylsulfoxide for two more weeks. Differentiated HepaRG cells were seeded at 4,000 cells per mm^2 at the bottom of the chip cavities beneath the membrane. 300,000 HUVEC (4,300 cells per mm^2) were seeded above the membrane and co-cultured with differentiated HepaRG cells in for 24 h before the uptake experiments. Cells were perfused with 50 μg ml^−1 NPs in Williams E medium. […] For each time point three pictures were taken and 200 region of interest (ROI) per picture were analysed.

uptake of DY-635 by primary hepatocytes [2]	affinity to NTCP (NTCP)	fluorescence decay over liver parenchyma (liver parenchyma)	SMILES	route of elimination (net organ-specific clearance) [1]	affinity to OATP1B1 compared with FDA-proposed competitor (OATP1B1)	affinity to OATP1B3 compared with FDA-proposed competitor (OATP1B3)	effect on uptake of DY-635[NP](−) (HepaRG and HUVEC cells)
rapid, temperature sensitive	moderate affinity	exponential decay	CC(C)(C)c1cc(/C=C/C=C2/N(CCCCCC(=O)NCCN)c3ccc(S(=O)(=O)O)cc3C2(C)C)c2cc3c4c(c2[o+]1)CCCN4CCC3 [DY-635]	excreted preferentially via the bile; also recorded: preferential hepatobiliary clearance	substantially exceeded that of the Food and Drug Administration (FDA) proposed ligand for drug development, rifampicin	substantially exceeded that of the Food and Drug Administration (FDA) proposed ligand for drug development, rifampicin	–
–	–	–	O=C1NC(=NS(=O)(=O)c2cccc3ccccc23)S/C1=C\c1ccc(Br)cc1 [Pitstop-2]	–	–	–	inhibition of NP uptake
